Source: patent US20040018983A1, “Antifungal compositions” (Achillion Pharmaceuticals, Inc., priority 2001, published 2004)
In brackets after ≈: the same amount, converted by molar mass. Read-outs that look alike come from different tables or passages of the source.

System: C. albicans
Assay: Fungal susceptibility to zinc finger selective antifungals: broth microdilution growth inhibition (OD 405 nm), with and without a zinc finger blocking compound
Assay type: cell-based, Candida albicans
Conditions: for MIC: Candida albicans, 48 h, read-out: C. albicans MIC; for Fold Increase: increase of MIC with blocking compound (cysteine or glutathione) over MIC alone; for C. albicans MIC + 200 μg/ml cysteine: with 200 μg/ml cysteine as zinc finger blocking compound; for C. albicans MIC + 200 μg/ml glutathione: with 200 μg/ml glutathione as zinc finger blocking compound; for blocking of antifungal action by glutathione and cysteine (zinc finger mechanism): discussion of Table 2
Protocol: A panel of Candida clinical isolates (including azole-resistant species) plus single isolates of Aspergillus fumigates, were used to evaluate the activity of the test compounds in vitro. Inocula were prepared as broth cultures (yeasts) or as suspensions of fungal material made from agar slope cultures (molds). The test compounds were pipetted from DMSO stock solution into water to provide a series of […] dilutions. […] (other fungi). Growth in the microcultures was measured by its optical density (OD) measured at a wavelength of 405 nm. The OD for cultures with test compounds was calculated as a percentage of the control, drug-free OD. Inhibition of growth to 35% of control or less was recorded as significant inhibition (Table 2).

[1] = no blocking compound, CYG medium, 2 days at 37° C., inhibition of growth to 35% of control or less

MIC [1] [µg/mL]	Compound	MIC [µg/mL]	Fold Increase [Fold]	C. albicans MIC + 200 μg/ml cysteine [µg/mL]	C. albicans MIC + 200 μg/ml glutathione [µg/mL]	blocking of antifungal action by glutathione and cysteine (zinc finger mechanism)
–	O=Nc1ccc(Nc2ccccc2)cc1 [Compound 12, 4-nitrosodiohenylamine]	2 (≈ 10.1 µM)	8	16	16	–
4 (≈ 22.8 µM)	O=Nc1ccc2oc(=O)ccc2c1 [Compound 2, 6-nitroso-1,3-benzopyrene]	–	4	16	16	–
8 (≈ 34.7 µM)	c1csc(SSc2cccs2)c1 [Compound 6, di(2-thienyl)disulphide]	–	2	16	16	–
–	CN(C)c1ccc(N=O)cc1 [Compound 9, 4-nitroso-N,N-dimethylaniline]	–	–	–	–	blocked to a somewhat different extent by the two different blocking compounds, but in both cases the effect is significant

Compound	MIC [1] [µg/mL]	MIC [µg/mL]	Fold Increase [Fold]	C. albicans MIC + 200 μg/ml cysteine [µg/mL]	C. albicans MIC + 200 μg/ml glutathione [µg/mL]	blocking of antifungal action by glutathione and cysteine (zinc finger mechanism)
Cc1ccccc1N=O [Compound 4, 2-nitrosotoluene]	16 (≈ 132 µM)	–	0	16	16	not blocked by either glutathione or cysteine
